Experimental data reported in the CheMixHub viscosity set.
± gives the uncertainty stated by the source.

Assay: xn = mol fraction of the nth substance listed

CN(C)CCO + CCCCn1cc[n+](C)c1.F[P-](F)(F)(F)(F)F
viscosity [mPa·s], 101 kPa
Details	x1 = 0.1221	x1 = 0.2143	x1 = 0.3182	x1 = 0.4405	x1 = 0.5166	x1 = 0.605	x1 = 0.709	x1 = 0.8063	x1 = 0.9128
293.15 K	–	–	87.91 ± 35	60.57 ± 24	47.58 ± 19	34.73 ± 14	–	–	7.95 ± 3.2
298.15 K	–	88.45 ± 35	66.23 ± 27	45.68 ± 18	36.09 ± 14	27.08 ± 11	–	–	6.67 ± 2.7
303.15 K	–	67.51 ± 27	50.77 ± 20	35.67 ± 14	28.45 ± 11	–	–	–	5.64 ± 2.3
308.15 K	67.28 ± 27	52.1 ± 21	39.24 ± 16	27.9 ± 11	–	–	–	7.99 ± 3.2	4.78 ± 1.9
313.15 K	52.9 ± 21	41.46 ± 17	31.33 ± 13	–	–	–	9.84 ± 3.9	6.74 ± 2.7	4.13 ± 1.6
318.15 K	42.39 ± 17	33.36 ± 13	25.47 ± 10	–	–	–	8.35 ± 3.3	5.74 ± 2.3	3.59 ± 1.4
323.15 K	35.09 ± 14	27.71 ± 11	–	–	–	9.86 ± 4	7.12 ± 2.9	4.99 ± 2	3.18 ± 1.3

ClCC(Cl)Cl + COc1ccccc1N
viscosity [mPa·s], 100 kPa
Details	x2 = 0.0884	x2 = 0.1905	x2 = 0.2923	x2 = 0.4076	x2 = 0.5076	x2 = 0.5945	x2 = 0.7016	x2 = 0.8104	x2 = 0.9023
303.15 K	1.376 ± 0.043	1.786 ± 0.056	2.192 ± 0.068	2.647 ± 0.082	3.038 ± 0.094	3.376 ± 0.11	3.789 ± 0.12	4.204 ± 0.13	4.554 ± 0.14
308.15 K	1.291 ± 0.041	1.676 ± 0.052	2.055 ± 0.064	2.478 ± 0.077	2.841 ± 0.088	3.154 ± 0.098	3.535 ± 0.11	3.918 ± 0.12	4.236 ± 0.13
313.15 K	1.204 ± 0.038	1.566 ± 0.049	1.916 ± 0.06	2.307 ± 0.072	2.641 ± 0.082	2.929 ± 0.091	3.279 ± 0.1	3.629 ± 0.11	3.918 ± 0.12

C=CC(=O)OC + CCCCCCCCCCO
viscosity [mPa·s], 101.3 kPa
Details	x1 = 0.1056	x1 = 0.2709	x1 = 0.3442	x1 = 0.4717	x1 = 0.5843	x1 = 0.7574	x1 = 0.8309	x1 = 0.8923	x1 = 0.9483	x1 = 0.9749
298.15 K	7.732 ± 0.3	4.826 ± 0.21	3.593 ± 0.16	2.331 ± 0.11	1.712 ± 0.08	0.938 ± 0.047	0.738 ± 0.038	0.639 ± 0.034	0.519 ± 0.029	0.482 ± 0.027
308.15 K	5.659 ± 0.24	3.531 ± 0.16	2.828 ± 0.13	1.792 ± 0.084	1.425 ± 0.068	0.804 ± 0.041	0.641 ± 0.034	0.54 ± 0.03	0.459 ± 0.026	0.432 ± 0.025

C=CC(=O)OC + CCOCCOCCO
viscosity [mPa·s], 101 kPa
Details	293.15 K	298.15 K	303.15 K	308.15 K	313.15 K	318.15 K
x2 = 0.0702	0.594 ± 0.07	0.558 ± 0.07	0.5 ± 0.07	0.469 ± 0.07	0.447 ± 0.07	0.428 ± 0.07
x2 = 0.1404	0.695 ± 0.07	0.65 ± 0.07	0.607 ± 0.07	0.572 ± 0.07	0.539 ± 0.07	0.507 ± 0.07
x2 = 0.2131	0.826 ± 0.07	0.767 ± 0.07	0.715 ± 0.07	0.671 ± 0.07	0.624 ± 0.07	0.589 ± 0.07
x2 = 0.2822	0.95 ± 0.071	0.877 ± 0.07	0.813 ± 0.07	0.756 ± 0.07	0.705 ± 0.07	0.659 ± 0.07
x2 = 0.3597	1.133 ± 0.071	1.038 ± 0.071	0.955 ± 0.071	0.884 ± 0.07	0.82 ± 0.07	0.762 ± 0.07
x2 = 0.4297	1.346 ± 0.071	1.226 ± 0.071	1.109 ± 0.071	1.019 ± 0.071	0.941 ± 0.07	0.872 ± 0.07
x2 = 0.5002	1.574 ± 0.071	1.428 ± 0.071	1.288 ± 0.071	1.171 ± 0.071	1.076 ± 0.071	0.992 ± 0.071
x2 = 0.5703	1.835 ± 0.072	1.648 ± 0.072	1.479 ± 0.071	1.355 ± 0.071	1.236 ± 0.071	1.125 ± 0.071
x2 = 0.6412	2.109 ± 0.072	1.904 ± 0.072	1.715 ± 0.072	1.547 ± 0.071	1.405 ± 0.071	1.286 ± 0.071
x2 = 0.7172	2.478 ± 0.073	2.199 ± 0.073	1.976 ± 0.072	1.782 ± 0.072	1.605 ± 0.071	1.457 ± 0.071
x2 = 0.7906	2.868 ± 0.074	2.529 ± 0.073	2.247 ± 0.073	2.017 ± 0.072	1.819 ± 0.072	1.656 ± 0.072
x2 = 0.8598	3.295 ± 0.076	2.893 ± 0.075	2.534 ± 0.073	2.279 ± 0.073	2.031 ± 0.072	1.836 ± 0.072
x2 = 0.9184	3.692 ± 0.077	3.212 ± 0.076	2.788 ± 0.074	2.508 ± 0.073	2.226 ± 0.073	2.016 ± 0.072
